{"source": "patent US9814732B2", "about": "“Ulipristal acetate for prevention and treatment of breast tumors” (LABORATOIRE HRA-PHARMA, priority 2012, dated 2017)", "key": {"GR [1]": {"biological_target": "T1, GR (Homo sapiens, UniProt P04150)", "T1 sequence (P04150 1-777)": "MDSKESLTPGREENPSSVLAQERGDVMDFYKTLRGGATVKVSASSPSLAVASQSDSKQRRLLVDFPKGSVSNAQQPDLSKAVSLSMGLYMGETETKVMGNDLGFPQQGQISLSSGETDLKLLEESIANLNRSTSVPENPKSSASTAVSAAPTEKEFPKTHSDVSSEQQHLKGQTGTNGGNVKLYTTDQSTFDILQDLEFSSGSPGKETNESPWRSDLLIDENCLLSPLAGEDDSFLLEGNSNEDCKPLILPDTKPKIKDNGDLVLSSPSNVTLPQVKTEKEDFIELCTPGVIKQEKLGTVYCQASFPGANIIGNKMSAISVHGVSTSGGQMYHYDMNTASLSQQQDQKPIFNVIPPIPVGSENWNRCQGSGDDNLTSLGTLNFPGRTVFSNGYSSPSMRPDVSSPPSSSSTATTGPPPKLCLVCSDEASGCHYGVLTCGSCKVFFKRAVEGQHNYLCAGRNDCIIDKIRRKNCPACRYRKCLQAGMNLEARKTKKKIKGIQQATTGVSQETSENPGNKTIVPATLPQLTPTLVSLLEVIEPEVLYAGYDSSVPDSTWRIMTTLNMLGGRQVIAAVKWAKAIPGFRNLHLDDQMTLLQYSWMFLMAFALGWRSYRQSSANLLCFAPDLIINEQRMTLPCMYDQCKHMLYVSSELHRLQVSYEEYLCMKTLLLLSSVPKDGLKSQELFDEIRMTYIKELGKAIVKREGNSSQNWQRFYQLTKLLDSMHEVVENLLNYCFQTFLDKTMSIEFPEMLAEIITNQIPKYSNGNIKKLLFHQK", "test": "GRE-Luc reporter gene transactivation in MCF-7 cells", "assay_type": "cell-based", "design": "endogenous in cells; host or cells: MCF-7", "conditions": "MCF7, DEX 100 nM, test compound 100 nM, read-out: inhibition of DEX-induced luciferase transactivation (GRE-Luc)"}, "GR [2]": {"biological_target": "T1, GR", "test": "GRE-Luc reporter gene transactivation in HBE cells", "assay_type": "cell-based", "conditions": "DEX 100 nM, test compound 100 nM, read-out: inhibition of DEX induced luciferase transactivation (GRE-Luc)"}, "[3]": {"tested_on": "normal human breast tissues xenografts", "test": "Ki67 mitotic index in normal human breast tissue xenografted in athymic mice", "assay_type": "in vivo", "conditions": "28 days", "source_text": "Breast tissues samples were obtained from 6 women (aged 29-42 years) undergoing surgery for reduction mammoplasty, with their informed consent according to the French law on clinical experimentation.\n(§1) Four weeks old ovariectomized female NMRInu/nu 20 athymic mice were purchased from Janvier laboratory (Le Genest Saint Isle, France). Breast tissues samples were obtained from 6 women (aged 29-42 years). Human mammary gland tissue was cut into 2×2×2 mm fragments and 4 fragments were then subcutaneously xenografted onto the back of 4 mice per group. Four treatment groups were performed: control, E2, E2+P and E2+P+UPA. Treatments were administered by grafting steroid pellets onto the neck of each mouse. The experimental conditions were initially determined by using a dose range of hormones mixed with cholesterol into the pellets. Blood sample assays were performed after 2 weeks and 4 weeks of treatment to measure plasmatic hormonal concentrations. Finally, the dose of 0.3 mg for E2 and 20 mg for P and UPA were used, as it provides the expected blood concentrations. For the control groups, pellets containing only cholesterol were used. To reproduce menstrual cycle conditions, mice were grafted on the first day of experiment with cholesterol, E2 and/or UPA containing pellets and on the fourteen day with cholesterol or progesterone containing pellets in control and E2 groups, or in E+P and E2+P+UPA groups, respectively. Twenty eight days after the start of experiment, mice were sacrificed. Blood was collected for each mouse, and serum was frozen at −20° C. until hormone concentrations\nMitotic index was calculated using the Ki67 antibody, and was determined for each breast tissue grafted into mice. Immunohistochemical analyses were performed using the BOND-MAX workstation (Leica, Nanterre, France). Paraffin sections of breast tissue xenografts were de-waxed and rehydrated before antigen retrieval using citrate retrieval solution (pH 6.0) for Ki67 antibody or EDTA retrieval solution (pH 9.0) for PR and ERalpha antibodies, for 30 min. […]"}, "[4]": {"test": "Hormone concentrations in serum of pellet-treated athymic mice", "assay_type": "in vivo", "conditions": "female, NMRI nu/nu athymic, mouse, other: steroid pellets grafted onto the neck, E2 0.3 mg pellet, day 28, read-out: concentration in mice serum (mean±SEM)", "description": "as §1\nEstradiol was measured by radioimmunoassay using Clinical Assays Estradiol-2 (Sorin Biomedica Diagnostics SpA, Saluggia, Italia). Progesterone levels were evaluated by UPLC-MSMS using Acquity UPLC and Quattro Premier XE (Waters, Milford Mass., USA).\nUPA concentrations were measured using LC-MS/MS technique by MPI Research (State College, Pa., USA)."}, "[5]": {"tested_on": "metastatic breast cancers", "conditions": "cited from earlier work; for disease stabilization / objective response rate: 123 postmenopausal women, second or third line, mifepristone or onapristone pooled"}, "hPR-A and hPR-B": {"tested_on": "hPR-A and hPR-B", "test": "MMTV-Luc reporter gene transactivation in HBE cells transfected with hPR-A and/or hPR-B", "assay_type": "cell-based, human", "procedure": "(§2) T-47D and MCF-7 cell lines were respectively maintained in RPMI 1640 and in DMEM medium supplemented with 10% fetal calf serum (PAA Laboratory, Les Mureaux, France). […] Normal human breast epithelial cell (HBE) primary cultures were obtained from 20 women (aged 17-50 years). […] HBE cells were maintained in HAM F10 medium (PAA Laboratory, Les Mureaux, France) containing hydrocortisone (5 ng/ml), Triiodo-L-thyronine (6.5 ng/ml), choleratoxin (10 ng/ml), transferrin (5 mg/ml), insulin (0.016 U/ml), epidermal growth factor (10 ng/ml) (Sigma, St Quentin Fallavier, France) and 5% human serum (Etablissement Français du Sang).\n(§3) After seeding, cells were cultured for 24 h in serum and phenol red free medium. Then treatments were carried out in a phenol red free medium containing 5% dextran-charcoal stripped serum. […] Control cells were treated with ethanol, at 10 1:1000 final ethanol concentration alone as vehicle or E2 (10 nM).\n(§4) Cells were transfected with reporter gene plasmids containing glucocorticoid and progesterone responsive elements (GRE/PRE): 1) the MMTV-Luc is a Mouse Mammary Tumor Virus Long Terminal Repeat promoter containing one GRE/PRE palindrome and three GRE/PRE hemi-palindromes upstream to firefly luciferase gene in pFC31 vector, 2) the GRELuc contains six copies of GRE/PRE palindrome upstream to firefly luciferase gene in pBL vector. When indicated, HBE cells were transfected with human PR isoforms hPR-A and hPR-B expression plasmids constructed in POP3 vectors. Rous Sarcoma Virus promoter upstream to beta galactosidase gene (pRSV-β-Gal) was transfected in each experiment as control. Transfections were performed according to the manufacturer instructions using Lipofectamine or Lipofectamine LTX Reagents (Invitrogen, Cergy-Pontoise, France) for breast cancer cell lines or HBE cells, respectively. After 24 h of transfection, breast cancer and HBE cells were treated with hormones for 24 h or 48 h, respectively. At the end of the experiment, cells were lysed and luciferase activity was determined using the Luciferase Assay System (Promega, Charbonnières-les-bains, France). Beta galactosidase activity was assessed using the Galacto Star kit (Applied Biosystems, Courtaboeuf, France) to normalize luciferase activity data."}, "PR": {"biological_target": "T2, PR (Homo sapiens, UniProt P06401)", "T2 sequence (P06401 1-933)": "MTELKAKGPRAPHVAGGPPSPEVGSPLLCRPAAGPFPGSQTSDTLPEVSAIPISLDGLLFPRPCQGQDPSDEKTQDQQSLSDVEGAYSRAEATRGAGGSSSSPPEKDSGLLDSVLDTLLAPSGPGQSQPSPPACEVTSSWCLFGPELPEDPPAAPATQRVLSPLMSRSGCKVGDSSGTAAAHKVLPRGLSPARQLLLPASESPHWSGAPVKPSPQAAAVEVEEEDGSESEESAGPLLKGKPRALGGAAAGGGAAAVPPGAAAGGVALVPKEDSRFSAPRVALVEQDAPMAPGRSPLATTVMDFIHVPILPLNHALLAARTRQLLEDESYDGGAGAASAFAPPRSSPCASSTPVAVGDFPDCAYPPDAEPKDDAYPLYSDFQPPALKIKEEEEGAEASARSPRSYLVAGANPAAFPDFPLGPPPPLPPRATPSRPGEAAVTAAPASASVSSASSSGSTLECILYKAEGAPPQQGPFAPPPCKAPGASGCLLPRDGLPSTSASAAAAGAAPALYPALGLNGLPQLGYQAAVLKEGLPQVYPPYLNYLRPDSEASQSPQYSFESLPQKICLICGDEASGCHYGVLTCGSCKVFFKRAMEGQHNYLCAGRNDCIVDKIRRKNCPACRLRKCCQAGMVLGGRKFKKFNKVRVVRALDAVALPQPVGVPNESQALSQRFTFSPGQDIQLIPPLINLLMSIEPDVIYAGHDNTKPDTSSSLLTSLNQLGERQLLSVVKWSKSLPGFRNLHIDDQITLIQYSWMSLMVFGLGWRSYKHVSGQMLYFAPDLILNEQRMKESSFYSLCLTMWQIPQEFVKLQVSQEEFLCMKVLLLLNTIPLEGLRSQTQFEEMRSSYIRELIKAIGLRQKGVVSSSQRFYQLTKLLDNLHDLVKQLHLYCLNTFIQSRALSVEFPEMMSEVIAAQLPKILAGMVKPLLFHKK", "test": "MMTV-Luc reporter gene transactivation in T-47D cells", "assay_type": "cell-based", "design": "constitutively expressed high amounts of PR (progesterone receptor); endogenous in cells; host or cells: T-47D", "procedure": "as §2, §3, §4"}, "HBCx-34 tumors": {"tested_on": "HBCx-34 tumors", "conditions": "model characterisation; cited from earlier work"}}, "data": [{"smiles": "CNc1ccc([C@H]2C[C@@]3(C)[C@@H](CC[C@]3(OC(C)=O)C(C)=O)[C@@H]3CCC4=CC(=O)CCC4=C32)cc1", "note": "[CDB-3877]", "values": [{"measurement": "inhibition at 0.1 µM", "setting": "GR [1]", "result": "26.5 ± 9.1", "unit": "%"}, {"measurement": "inhibition at 0.1 µM", "setting": "GR [2]", "result": "18.1 ± 11.8", "unit": "%"}]}, {"smiles": "C[C@]12CC[C@@H]3c4ccc(O)cc4CC[C@H]3[C@@H]1CC[C@@H]2O", "note": "[E2, 17β estradiol]", "values": [{"measurement": "proliferative activity (Ki67) in lobules", "setting": "[3]; E2 treated group vs control group", "result": "slightly but not significantly increased"}, {"measurement": "mitotic index (Ki67) in ducts", "setting": "[3]; E2 treated group, p<0.05", "result": "3.1±0.7 fold induction compared to the control group"}, {"measurement": "concentration at 28 days", "setting": "[4]", "result": "0.0369 ± 0.00425", "unit": "ng/mL"}]}, {"smiles": "CC#C[C@]1(O)CC[C@H]2[C@@H]3CCC4=CC(=O)CCC4=C3[C@@H](c3ccc(N(C)C)cc3)C[C@@]21C", "note": "[RU-486, mifepristone]", "values": [{"measurement": "disease stabilization", "setting": "[5]", "result": 43, "unit": "%"}, {"measurement": "objective response rate", "setting": "[5]", "result": 11, "unit": "%"}, {"measurement": "side effects that stopped clinical studies", "setting": "[5]", "result": "anti-glucocorticoid"}, {"measurement": "inhibition of P induced MMTV-Luc transactivation", "setting": "hPR-A and hPR-B; HBE cells co-transfected with hPR-A and hPR-B, P 100 nM, antagonist 1 to 1000 nM", "result": "inhibited P induced MMTV11 Luc transactivation in a dose dependent manner from 1 000 to 10 nM"}, {"measurement": "progestational agonist properties on reporter gene transcription", "setting": "hPR-A and hPR-B; HBE cells, compound alone", "result": "did not exhibit progestational agonist properties"}, {"measurement": "PR antagonist response on MMTV-Luc transactivation at 1 nM", "setting": "PR; P 100 nM, antagonist 1 nM", "result": "Partial antagonist responses"}, {"measurement": "PR antagonist action on MMTV-Luc transactivation", "setting": "PR; P 100 nM, antagonist 1000 to 10 nM", "result": "potent PR antagonist actions from 1000 to 10 nM"}, {"measurement": "progestational agonist properties on reporter gene transcription", "setting": "PR; compound alone", "result": "did not exhibit progestational agonist properties"}]}, {"smiles": "CCCCCOC(=O)Nc1nc(=O)n([C@@H]2O[C@H](C)[C@@H](O)[C@H]2O)cc1F", "note": "[capecitabine]", "values": [{"measurement": "responsiveness of the HBCx-34 tumor", "setting": "HBCx-34 tumors", "result": "responsive"}]}, {"smiles": "CC(=O)O[C@@]12CO[C@@H]1C[C@H](O)[C@@]1(C)C(=O)[C@H](O)C3=C(C)[C@@H](OC(=O)[C@H](O)[C@@H](NC(=O)OC(C)(C)C)c4ccccc4)C[C@@](O)([C@@H](OC(=O)c4ccccc4)[C@H]21)C3(C)C", "note": "[docetaxel]", "values": [{"measurement": "responsiveness of the HBCx-34 tumor", "setting": "HBCx-34 tumors", "result": "responsive"}]}, {"smiles": "CN(C)c1ccc([C@H]2C[C@]3(C)[C@@H](CC[C@]3(O)CCCO)[C@@H]3CCC4=CC(=O)CCC4=C32)cc1", "note": "[onapristone]", "values": [{"measurement": "disease stabilization", "setting": "[5]", "result": 43, "unit": "%"}, {"measurement": "objective response rate", "setting": "[5]", "result": 11, "unit": "%"}, {"measurement": "side effects that stopped clinical studies", "setting": "[5]", "result": "liver toxic"}]}]}
